The values below come from ChEMBL document CHEMBL1128974, “Design, synthesis and X-ray crystallographic studies of [7.3.1] and [8.3.1] macrocyclic FKBP-12 ligands” (Bioorg Med Chem Lett, 1996).

SMILES strings stand for the structures.

For assay [1], the target named is T1, Peptidyl-prolyl cis-trans isomerase FKBP1A (Homo sapiens, UniProt P62942). Description: Compound was evaluated for inhibitory activity against human FKBP-12 rotamase.
Assay [2] deals with T1, Peptidyl-prolyl cis-trans isomerase FKBP1A. Description: Compound was evaluated for inhibitory activity against human FKBP-12 rotamase; no inhibition.

T1 sequence (P62942 whole entry): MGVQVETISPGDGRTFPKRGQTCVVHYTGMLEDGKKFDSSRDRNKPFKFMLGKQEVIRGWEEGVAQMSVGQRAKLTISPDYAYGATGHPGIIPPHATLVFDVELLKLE

Consider `COc1cc(C(=O)C(=O)N2[C@@H]3CCC[C@H]2C(=O)OCCCCOC3=O)cc(OC)c1OC`, for which affinity in assay [1] was put at a Ki of 0.28 µM.

As for `CCC(C)(C)C(=O)C(=O)N1[C@@H]2CCC[C@H]1C(=O)OCCCOC2=O`, in assay [1], the affinity, expressed as Ki, was 10 µM. This Ki is about 36-fold higher than that of the molecule before.

With `CCC(C)(C)C(=O)C(=O)N1[C@@H]2CCC[C@H]1C(=O)OCCCCOC2=O`, affinity in assay [1] was put at a Ki of 8.3 µM. The Ki values of the last two molecules are within 1.5-fold of each other.

As to `CC(C)[C@@H]1CC[C@@H](C)[C@](O)(C(=O)C(=O)N2[C@@H]3CCC[C@H]2C(=O)OCCCOC3=O)C1`, in assay [1], the affinity corresponds to a Ki of 8.1 µM.

Take `COc1cc(C(=O)C(=O)N2[C@@H]3CCC[C@H]2C(=O)OCC(COCc2ccccc2)COC3=O)cc(OC)c1OC` (stereo not given in full): the inhibitory constant (Ki) – broadly, a dissociation constant, usually derived from enzyme kinetics or from competition with a known ligand – in assay [1] was 1.2 µM.

In turn, `COCC(C)[C@@H]1CC[C@@H](C)[C@](O)(C(=O)C(=O)N2[C@@H]3CCC[C@H]2C(=O)OCC(CO)COC3=O)C1` (stereo not given in full) returned a Ki in assay [1] of over 50 µM.

For `COCC(C)[C@@H]1CC[C@@H](C)[C@](O)(C(=O)C(=O)N2[C@@H]3CCC[C@H]2C(=O)OCC(COCc2ccccc2)COC3=O)C1` (stereo not given in full), in assay [2], the Ki result is given as “Not Active”.

For `CO[C@@H](CC(C)C)[C@@H]1CC[C@@H](C)[C@](O)(C(=O)C(=O)N2[C@@H]3CCC[C@H]2C(=O)OCC(CO)COC3=O)C1` (stereo not given in full), the inhibition constant (Ki) result in assay [2] is recorded as “Not Active”.

Turning to `CO[C@@H](CC(C)C)[C@@H]1CC[C@@H](C)[C@](O)(C(=O)C(=O)N2[C@@H]3CCC[C@H]2C(=O)OCC(COCc2ccccc2)COC3=O)C1` (stereo not given in full), the Ki entry in assay [2] is “Not Active”.

Molecule `COc1cc(C(=O)C(=O)N2[C@@H]3CCC[C@H]2C(=O)OCC(CO[Si](C)(C)C(C)(C)C)COC3=O)cc(OC)c1OC` (stereo not given in full) registered a Ki in assay [1] of 1.5 µM.
